According to patent publication US6897287B1, “Ro/SSA peptide reagents for diagnosis of autoantibodies” (Oklahoma Medical Research Foundation, priority 1990, dated 2005):
“Also recorded” adds a separate entry of the source. Where no end group is shown, it is not given here.

The substances below were run on affinity purified anti-La/SSB antibodies (assay: Pin ELISA of La/SSB octapeptides with affinity purified anti-La/SSB antibodies). Conditions: affinity enriched preparation, patient E11; peak or average reactivities.
Assay type: binding, human
Experimental: Solid Phase Anti-peptide Assay. All steps were carried out by immersing the pin blocks into microtiter plate wells. Pins were incubated in blocking buffer (1% bovine serum albumin (BSA) in phosphate buffered saline (PBS), pH 7.2) for 1 h at room temperature and then in 1:100 dilutions of sera in diluent (1% BSA and 0.05% Tween in PBS) overnight at […] in humidified containers. Pin blocks were washed four times with wash buffer (0.05% Tween in PBS) for 10 min with agitation and then immersed for 1 h at room temperature in affinity purified goat anti-human-chain specific antibody conjugated to alkaline phosphatase (Sigma Chemical Co., St. Louis, Mo.) diluted 1:1000 in diluent. After washing as above, pins were incubated in para-nitrophenyl phosphate solution at 37° C. for 2 h. Color development was read at 410 nm on a DYNATECH® MR5000 ELISA plate reader.
Samples. Sera from five normal, healthy donors and ten patients with primary SS and/or SLE were screened by pin ELISA for antibodies binding to the La/SSB octapeptides. Eight of these ten patients had both anti-Ro/SSA and anti-La/SSB precipitin forming autoantibodies, and seven of these eight had borne children with congenital heart block (CCHB). Two patients had antibodies to Ro/SSA alone. Anti-La/SSB antibodies were affinity purified from the sera of two patients on La/SSB cross-linked immunosorbents as described by Horsfall, et al., J. Immunol. Meth. 104:43 (1987).
Anti-La/SSB antibodies from two patients have been affinity purified on La/SSB cross-linked immunosorbents. […] The affinity enriched preperation binds 17 of the 18 previously identified epitopes, the exception being epitope 17 (octapeptide 379); however, this preperation does bind octapeptides adjacent to epitope 17, particularly octapeptides 380 and 382. Those putative epitopes in which the binding is most enriched include epitopes 2, 3, 6, 9, 10, 12, 13 and 15. These same epitopes appear enriched whether peak or average reactivities for each putative epitope are compared. Essentially the same results have been obtained from an affinity enriched preparation of the anti-La/SSB from a second patient.

Row | enrichment of binding relative to the serum | Substance
1 | most enriched | EGIILFKEKAK [epitope 13]
2 | most enriched | GEIKWIDFVRGAK [epitope 6]
3 | most enriched | IFVVFDSIE [epitope 9]
4 | most enriched | KETDLLILFKDDYFA [epitope 10]
5 | most enriched | REDLHILF [epitope 15]
6 | most enriched | TDFNVIVEA [epitope 12]
7 | most enriched | WVPLEIMIKFNR [epitope 3]

Row | Substance | enrichment of binding relative to the serum
8 | ICHQIEYYFGDFNLPRDKFLK [epitope 2] | most enriched

Same assay, conditions: preparation from patient E11

Row | binding by affinity enriched anti-La/SSB preparation | Substance
9 | does bind | octapeptide 380: La/SSB octapeptide adjacent to epitope 17, starting at amino acid 380 (GPVKRARE; UniProt P05455 380-387, looked up, fragment)
10 | does bind | octapeptide 382: La/SSB octapeptide adjacent to epitope 17, starting at amino acid 382 (VKRAREET; UniProt P05455 382-389, looked up, fragment)

These substances were tested on sera that contain an anti-Sm precipitin in the absence of an anti-nRNP precipitin (assay: Solid phase antipeptide assay with sera having anti-Sm precipitin alone). Conditions: anti-Sm precipitin without anti-nRNP precipitin.
Assay type: binding, human
Experimental: Solid phase antipeptide assay. Wash steps and incubations were carried out in sealed plastic containers. Other assay steps were performed by lowering the pins into microliter plate wells. First, pins were blocked with 3% low-fat milk in PBS for 1 h at room temperature. Pins were then incubated in 1/100 dilutions of sera in 3% milk/PBS with 0.05% TWEEN® (surfactant) overnight at 4° C. in humidified sealed containers. The pin blocks were then washed four times with PBS with 0.05% TWEEN® (surfactant) for 10 min each with vigorous agitation. Next, each pin was incubated with anti-human gamma-chain specific IgG raised in a goat, affinity purified and conjugated to alkaline phosphatase (Jackson Immunoresearch Laboratories, West Grove, Pa.) at a {fraction (1/10,000)} dilution. Paranitrophenyl phosphate disodium was used as a substrate for alkaline phosphatase and plates were read at 405 nm with a MICROELISA Reader (Dynatech, Alexandria, Va.). Results for each plate were then standardized by comparison with positive control pins. The same control pins were used for all plates and were allowed to develop to a specific OD with a known concentration of a standard control sera.
All antigenic sites determined in this study require a positively charged amino acid. The size of these sites varies from two nonconsecutive basic amino acids to an entire octapeptide. […]

Row | Substance | binding in words
11 | PPPGMRPP (listed as Homo sapiens) | does not appear to be bound

These substances were tested on antibody of patient serum (assay: Solid phase assay of nRNP (70 kD, A, C) octapeptides with patient sera). Conditions: nRNP A sequences marked (*).
Assay type: binding, human
Excerpt: The sequence of the 70 kD nuclear ribonucleoprotein (nRNP) is reported by R. A. Spritz, et al., in Nucleic Acids Res. 24: 10373-10391 (1987), the teachings of which are incorporated herein. The data analysis is done the same as for the Ro/SSA and La/SSB antigens. Each sequence identified represents the binding of antibody to octapetides that exceed arbitrary criteria in the solid phase assay. The identified antigenic regions are more than two standard deviations above the mean of normal sera and are bound by more than half of the patients. For the binding to the 70 kD peptide, the threshold in the assay is A410 of 0.380. The numbers in parentheses are the sequence positions of the first amino acid in the first octapeptide that exceeds the threshold. Each identified sequence is composed of one or more octapeptides. The number of octapeptides in each sequence is the length of the sequence […]. The underlined part of the sequence is the octapeptide that is bound most by the patient serum. In some cases, another octapeptide is essentially equivalent but not underlined.

Row | Substance | proportion of sera binding
12 | ERDRKREKRKPKS | bound by a subset of the sera tested
13 | LVSRSLKMRQAF | bound by a subset of the sera tested

These substances were tested on KSm 5 monoclonal autoantibody (assay: Binding of monoclonal antibody KSm 5 to Sm B/B' octapeptides). Conditions: hybridoma supernatant.
Parameters: species or system MRL lpr/lpr mouse
Excerpt: (§1) Autoantibodies binding the Sm B and B′ peptides (B/B′) are commonly associated with systemic lupus erythernatosus in man and in MRL lpr/lpr mice. KSm 3 and KSm 5 were derived from an unmanipulated MRL lpr/lpr mouse using hybridoma monoclonal antibody technology. Supernatants containing KSm 3 and KSm 5 monoclonal antibodies were collected from cloned murine hybridoma cell lines in RPMI 1640 with 10% fetal bovine serum, glutamine, penicillin and streptomycin. These monoclonal autoantibodies are both of the IgG2a subclass. The linear antigenic regions of these two anti-Sm B/B′ murine monoclonal autoantibodies have been mapped using overlapping octapeptides. Unique epitopes are identified by each monoclonal. Monoclonal antibody KSm 5 recognizes the peptide, PPPGMRPP (amino acids 4-11 of SEQ ID NO:14), which is repeated three times in the Sm B polypeptide. […] Both of these regions of Sm B/B′ are major areas of antigericity for human anti-Sm autoantibodies. […] When the arginine in the sixth position PPPGMRPP (amino acids 4-11 of SEQ ID NO:14) is substituted KSm 5 binding is found in an unexpected subset of octapeptides. […] In contrast, binding of KSm 3 to PPPGIRPP (SEQ ID NO:122) is abolished when the sixth position arginine is substituted by any other amino acid. These two murine autoantibodies bind distinct linear epitopes of Sm B/B′ which are also bound by human anti-Sm B/B′ autoantibodies. […]

Row | binding by KSm 5 in words | Substance
14 | recognizes | PPPGMRPP (listed as Homo sapiens)

What follows are substances tested on anti-Sm and anti-nRNP precipitin sera (IgG) (assay: Solid phase antipeptide assay of Sm B/B' and related peptides with Sm, nRNP precipitin positive sera). Conditions: deletion peptides, six patient sera.
Assay type: binding, human
Experimental: Sera. Human sera form patients who satisfied the classification criteria of the American Rheumatism Association for SLE or normal age-matched, sex-matched controls were used in this study. Fifteen sera from lupus patients were tested. Ten of these sera tested contained antibodies that formed strong precipitin lines with both Sm and nRNP, three formed precipitin lines with only nRNP, one formed a precipitin line with Ro/SSA and La/SSB, and one formed a precipitin line with only Ro/SSA. All of these serologic findings were confirmed by appropriate molecular weight bands for the reported antigen being bound in immunoblot by the respective sera.
Solid-phase noncleavable peptide synthesis. The published sequence of Sm B/B′ was used to construct all the possible overlapping octapeptides. The amino acids used for peptide synthesis had Fmoc protected primary amino groups and t-butyl (or other appropriate group) protected side chains. Overlapping octapeptides were simultaneously synthesized at the rounded ends of radiation derivatized polyethylene pins that were arranged in the format of a 96 well microliter plate (Cambridge Research Biochemicals. Cambridge, UK and Coselco Mimotopes Pty Ltd. Victoria, Australia) The active esters of Fmoc, t-butyl amino acid solutions (30 mM) were solubilized in DMF that had […] added to a final concentration of 30 mM and dispensed into the wells of a microliter plate. Each amino acid was added as determined by the 240 amino acids of the Raji Sm B/B′ sequence. After 18 h of incubation, the pins were washed in DMF for 5 min. four times at 2 min each in methanol, and once again in DMF for 5 min. The Fmoc protecting groups were then removed from the newly added amino acid by a 20% piperidine/DMF bath for 30 min. These steps were repeated until all eight amino acids were added. After the final amino acid, the amino terminal groups of each peptide was acetylated by incubating the pins in a 5:2:1 (v/v/v) mixture of DMF:acetic anhydride: triethylamine for 90 min at room temperature. After this step the pins were again washed in DMF for 2 min, four times at 2 min each in methanol, and then air-dried for 10 min. Finally, side chain amino protecting groups were removed by […] (v/w/v) of trifluoracetic acid:phenol:ethanedithiol. Wash steps included 2 min in methylene chloride, two times at 5 min each in 5% […]/methylene chloride, and a final methylene chloride wash for 5 min. After drying for 10 min., pins were placed in distilled water for 2 min., transferred to a methanol bath for 18 h. and dried under vacuum for 18 h. This procedure was repeated to synthesize another set of the carboxyl-terminal 36 octapeptides to allow substantiation of the previous data. In addition other octapeptides, including the amino acid changes seen in the vanDam/Ohosone Proc. Natl. Acad. Sci. USA 86:4249 (1989) sequences, were also synthesized. Selected substitution and deletion sequences, along with similar sequences from other proteins, were also constructed. Control pins composed of amino acids in a random sequence were prepared that were not present in any of the Sm or nRNP antigen sequences. In addition, positive control pins were synthesized from a known reactive sequence of the La/SSB peptide.
Solid phase antipeptide assay. Wash steps and incubations were carried out in sealed plastic containers. Other assay steps were performed by lowering the pins into microliter plate wells. First, pins were blocked with 3% low-fat milk in PBS for 1 h at room temperature. Pins were then incubated in 1/100 dilutions of sera in 3% milk/PBS with 0.05% TWEEN® (surfactant) overnight at 4° C. in humidified sealed containers. The pin blocks were then washed four times with PBS with 0.05% TWEEN® (surfactant) for 10 min each with vigorous agitation. […]

Row | Substance | reactivity to the PPPGMRPP motif destroyed
15 | PPPGM (homo sapien; (3)..(10) Binding site) | Greater than 60%

Same assay, conditions: sera 1/100, Sm and nRNP precipitin positive SLE patients

Row | Substance | antigenicity / reactivity in words
16 | DCDEFRKI (homo sapien) [octapeptide 44] | Binding is lost
17 | PAPGMRPP (homo sapien) | as antigenic as PPPGMRPP
18 | PKNAKQPE (homo sapien) [octapeptide 53] | Binding is lost
19 | PPP | no solely poly-proline sequence tested
20 | PPPGIRGP (listed as Homo sapiens) | bound by all the Sm, nRNP sera tested
21 | PPPGMIPP (homo sapien) | not antigenic; also recorded: does not bind
22 | PPPGMR (not fully specified) | does not appear to significantly alter binding
23 | PPPGMRP (PPPGMXP; homo sapien; (3)..(10) Binding site) | does not appear to significantly alter binding
24 | PPPGMRPP (listed as Homo sapiens) | especially antigenic; also recorded: consistently the most immunoreactive; also recorded: similarly antigenic in each; also recorded: major linear antigenic epitope
25 | PPPP (homo sapien) | no solely poly-proline sequence tested
26 | PPPPP (homo sapien) | no solely poly-proline sequence tested

Same assay, conditions: sera 1/100, Sm and nRNP precipitin positive SLE patients; listed as nRNP A

Row | Substance | antigenicity / reactivity in words
27 | PPPGMIPP (homo sapien) | relatively no reactivity

Same assay, conditions: substituted or homologous octapeptides, six patient sera

Row | Substance | original reactivity (binding) of PPPGMRPP retained
28 | PAPGMRPP (homo sapien) | over 90%

These substances were tested on KSm 3 monoclonal autoantibody (assay: Binding of monoclonal antibody KSm 3 to Sm B/B' octapeptides). Conditions: hybridoma supernatant.
Parameters: species or system MRL lpr/lpr mouse
Excerpt: as §1

Row | binding by KSm 3 in words | Substance
29 | binds best | PGIRGPPP (homo sapien)
30 | binds best | PPPGIRGP (listed as Homo sapiens)
